Laboratory results published in publication PMC9518259, “Design and synthesis of benzothiazole-based SLC-0111 analogues as new inhibitors for the cancer-associated carbonic anhydrase isoforms IX and XII” (Journal of Enzyme Inhibition and Medicinal Chemistry, 2022).
Where two headings read alike, the source gives them in different places.

What was measured:
[1] = target: T1, hCA II (Homo sapiens, UniProt P00918); test: stopped-flow CO2 hydrase assay; assay type: biochemical
T1 construct: gene CA2
Description: stopped-flow CO2 hydrase assay on hCA II

[2] = target: T2, hCA XII (Homo sapiens, UniProt O43570); test: stopped-flow CO2 hydrase assay; assay type: biochemical
T2 construct: gene CA12

[3] = target: T3, hCA I (Homo sapiens, UniProt P00915); test: stopped-flow CO2 hydrase assay; assay type: biochemical
T3 construct: gene CA1
Description: stopped-flow CO2 hydrase assay on hCA I

[4] = target: T4, hCA IX (Homo sapiens, UniProt Q16790); test: stopped-flow CO2 hydrase assay; assay type: biochemical
T4 construct: gene CA9

[5] = stopped-flow CO2 hydrase assay; assay type: biochemical, Homo sapiens; conditions: read-out: KI (nM)^a / hCA I
[6] = stopped-flow CO2 hydrase assay; assay type: biochemical, Homo sapiens; conditions: read-out: KI (nM)^a / hCA I; remark: listed apart in the source

T2 sequence (O43570 25-354): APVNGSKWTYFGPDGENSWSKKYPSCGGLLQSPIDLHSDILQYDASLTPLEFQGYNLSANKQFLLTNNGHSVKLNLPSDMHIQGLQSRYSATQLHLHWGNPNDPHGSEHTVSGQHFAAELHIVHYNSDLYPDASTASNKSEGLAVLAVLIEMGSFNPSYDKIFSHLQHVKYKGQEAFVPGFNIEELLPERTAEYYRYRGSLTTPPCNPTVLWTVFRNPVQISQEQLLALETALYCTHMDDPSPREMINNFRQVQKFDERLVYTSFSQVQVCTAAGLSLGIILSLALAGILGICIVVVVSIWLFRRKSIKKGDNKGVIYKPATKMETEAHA
T3 sequence (P00915 2-261): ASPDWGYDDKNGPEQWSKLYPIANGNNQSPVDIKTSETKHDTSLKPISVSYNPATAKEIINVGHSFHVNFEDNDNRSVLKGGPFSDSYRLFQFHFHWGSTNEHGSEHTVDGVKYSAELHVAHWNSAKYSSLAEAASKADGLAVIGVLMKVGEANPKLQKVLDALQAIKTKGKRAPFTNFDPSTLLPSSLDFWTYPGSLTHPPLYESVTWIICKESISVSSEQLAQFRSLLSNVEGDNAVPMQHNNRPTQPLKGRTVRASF

Ki [1]	Ki [2]	Ki [3]	Ki ([4]; read-out: KI (nM)^a / hCA IX)	Ki [5]	Ki [6]	Ki ([4]; read-out: KI (nM)^a / hCA I)	Structure (SMILES)
94100 nM	9140 nM	82800 nM	16300 nM				O=C(Nc1cccc(C(=O)O)c1)Nc1nc2ccccc2s1 [14b]
75900 nM	39900 nM	68100 nM	44600 nM				O=C(Nc1nc2ccccc2s1)Nc1ccccc1C(=O)O [14a]
653 nM	57.5 nM	4040 nM	48.9 nM				NS(=O)(=O)c1cccc(NC(=O)Nc2nc3ccccc3s2)c1 [8b]
9470 nM	8540 nM	11800 nM	2410 nM				O=C(Nc1ccc(C(=O)O)cc1)Nc1nc2ccccc2s1 [14c]
785 nM	41.2 nM	12600 nM	65.3 nM				NS(=O)(=O)c1ccccc1NC(=O)Nc1nc2ccccc2s1 [8a]

Further lines, the compound ahead of its results:

Structure (SMILES)	Ki [1]	Ki [2]	Ki [3]	Ki ([4]; read-out: KI (nM)^a / hCA IX)	Ki [5]	Ki [6]	Ki ([4]; read-out: KI (nM)^a / hCA I)
NS(=O)(=O)c1ccc(NC(=O)Nc2nc3ccccc3s2)cc1 [8c]	54.1 nM	29.3 nM	362 nM	31.5 nM			
NS(=O)(=O)c1ccc(CNC(=O)Nc2nc3ccccc3s2)cc1 [compound 10, 10]	204 nM	51.2 nM	946 nM	58.8 nM			
Cc1noc(NS(=O)(=O)c2ccc(NC(=O)Nc3nc4ccccc4s3)cc2)c1C [16b]			> 100000 nM		> 100000 nM	> 100000 nM	> 100000 nM
O=C(Nc1ccc(S(=O)(=O)Nc2nccs2)cc1)Nc1nc2ccccc2s1 [16a]		32500 nM	> 100000 nM	56100 nM	> 100000 nM		
NS(=O)(=O)c1ccc(CCNC(=O)Nc2nc3ccccc3s2)cc1 [compound 12, 12]	28.5 nM	34.7 nM	61.5 nM	16.4 nM			
